Laboratory results published in US20070173522A1, “4-(2-Phenylsulfanyl-phenyl)-1,2,3,6- tetrahydropyridine derivatives as serotonin reuptake inhibitors” (priority 2003, published 2007).

Experiments:
[1] = target: T1, serotonin reuptake (5-HT uptake into rat cortical synaptosomes) (Rattus norvegicus, UniProt P31652); test: Measurements of [3H]-5-HT uptake into rat cortical synaptosomes; assay type: biochemical; details: result in words; test described in the examples section
T1 construct: Whole brains from male Wistar rats (125-225 g), excluding cerebellum, are homogenized; from tissue; host or cells: synaptosomal preparation from whole brain (excluding cerebellum) of male Wistar rats
T1 sequence (P31652 whole entry): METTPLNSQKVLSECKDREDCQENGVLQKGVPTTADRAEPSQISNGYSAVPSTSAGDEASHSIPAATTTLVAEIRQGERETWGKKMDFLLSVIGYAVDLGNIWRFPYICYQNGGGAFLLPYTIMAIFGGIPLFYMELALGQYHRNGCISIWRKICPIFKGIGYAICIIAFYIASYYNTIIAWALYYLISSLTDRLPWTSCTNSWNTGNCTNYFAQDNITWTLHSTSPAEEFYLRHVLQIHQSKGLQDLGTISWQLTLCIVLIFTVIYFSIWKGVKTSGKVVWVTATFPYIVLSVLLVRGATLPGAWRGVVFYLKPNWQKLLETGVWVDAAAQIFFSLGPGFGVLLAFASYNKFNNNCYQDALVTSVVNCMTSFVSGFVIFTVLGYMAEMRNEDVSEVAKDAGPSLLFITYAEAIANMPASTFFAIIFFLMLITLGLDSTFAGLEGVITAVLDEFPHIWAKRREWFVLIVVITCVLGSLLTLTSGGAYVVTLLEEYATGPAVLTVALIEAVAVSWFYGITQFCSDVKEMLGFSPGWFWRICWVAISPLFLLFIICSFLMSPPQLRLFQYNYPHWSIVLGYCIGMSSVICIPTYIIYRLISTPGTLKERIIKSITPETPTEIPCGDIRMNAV
Procedure: Measurements of [^3]-5-HT Uptake into Rat Cortical Synaptosomes.
Whole brains from male Wistar rats (125-225 g), excluding cerebellum, are homogenized in 0.32 M sucrose supplemented with 1 mM nialamid with a glass/teflon homogenizer. The homogenate is centrifuged at 600×g for 10 mil at 4° C. The pellet is discarded and the supernatant is centrifuged at 20.000×g for 55 min. The final pellet is homogenized (20 sec) in this assay buffer (0.5 mg original tissue/well). Test compounds (or buffer) and 10 nM [^3H]-5-HT are added to 96 well plates and shaken briefly. Composition of assay buffer: 123 mM NaCl, 4.82 mM KCl, 0.973 mM CaCl2, 1.12 mM MgSO4, 12.66 mM Na2HPO4, 2.97 mM NaH2PO4, 0.162 mM EDTA, 10 mM glucose and 1 mM ascorbic acid. Buffer is oxygenated with 95% O2/5% CO2 for 10 min at 37° C. and pH is adjusted 7.4. The incubation is started by adding tissue to a final assay volume of 0.2 mL. After 15 min incubation with radioligand at 37° C., samples are filtered directly on Unifilter GF/C glass fiber filters (soaked for 1 hour in 0.1% polyethylenimine) under vacuum and immediately washed with 3×0.2 ml assay buffer. Non-specific uptake is determined using citalopram (10 μM final concentration). Citalopram is included as reference in all experiments as dose-response curve.

[2] = target: T2, norepinephrine uptake (noradrenaline uptake into rat cortical synaptosomes) (Rattus norvegicus, UniProt Q63380); test: Measurements of [3H]noradrenaline uptake into rat cortical synaptosomes; assay type: biochemical; details: result in words; test described in the examples section
T2 construct: Fresh cortex from male Wistar rats (125-225 g) are homogenized in 0.4M sucrose; from tissue; host or cells: synaptosomal preparation from fresh cortex of male Wistar rats
T2 sequence (Q63380 1-617): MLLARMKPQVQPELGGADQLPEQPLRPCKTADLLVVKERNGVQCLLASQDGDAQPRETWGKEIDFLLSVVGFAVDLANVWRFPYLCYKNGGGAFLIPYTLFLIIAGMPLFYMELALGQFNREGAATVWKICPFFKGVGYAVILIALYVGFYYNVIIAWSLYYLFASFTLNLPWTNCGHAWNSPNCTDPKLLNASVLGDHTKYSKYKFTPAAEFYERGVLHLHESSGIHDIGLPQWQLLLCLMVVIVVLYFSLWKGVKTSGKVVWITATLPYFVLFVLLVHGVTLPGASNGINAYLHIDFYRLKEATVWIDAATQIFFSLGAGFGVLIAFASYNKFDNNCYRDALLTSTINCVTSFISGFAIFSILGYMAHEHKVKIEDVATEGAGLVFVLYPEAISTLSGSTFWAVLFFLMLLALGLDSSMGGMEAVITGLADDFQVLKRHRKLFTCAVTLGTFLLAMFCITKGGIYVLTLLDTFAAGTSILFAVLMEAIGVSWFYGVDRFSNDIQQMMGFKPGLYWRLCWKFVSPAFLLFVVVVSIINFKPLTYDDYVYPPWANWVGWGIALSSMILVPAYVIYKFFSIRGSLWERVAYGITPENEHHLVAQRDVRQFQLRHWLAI
Procedure: Measurements of ^3H]Noradrenaline Uptake into Rat Cortical Synaptosomes.
Fresh cortex from male Wistar rats (125-225 g) are homogenized in 0.4M sucrose with a glass/teflon homogenizer. The homogenate is centrifuged at 600×g for 10 min at 4° C. The pellet is discarded and the supernatant is centrifuged at 20.000×g for 55 min. The final pellet is homogenized (20 sec) in this assay buffer (6 mg original tissue/mL=4 mg/well). Test compounds (or buffer) and 10 nM [^3H]-noradrenaline are added to deep 96 well plates and shaken briefly. Composition of assay buffer: 123 mM NaCl, 4.82 mM KCl, 0.973 mM CaCl2, 1.12 mM MgSO4, 12.66 mM Na2HPO4, 2.97 mM NaH2PO4, 0.162 mM EDTA, 10 mM glucose and 1 mM ascorbic acid. Buffer is oxygenated with 95% O2/5% CO2 for 10 min at 37° C. and pH is adjusted 7.4. The incubation is started by adding tissue to a final assay volume of 1 ml. After 15 min incubation with radioligand at 37° C., samples are filtered directly on Unifilter GF/C glass fiber filters (soaked for 1 hour in 0.1% polyethylenimine) under vacuum and immediately washed with 3×1 mL assay buffer. Non-specific uptake is determined using talsupram (10 μM final concentration). Duloxetine is included as reference in all experiments as dose-response curve.

| Compound | serotonin reuptake inhibition [1] | norepinephrine uptake inhibition [2] |
| --- | --- | --- |
| Cc1ccc(Sc2ccc(C)c(F)c2)c(C2=CCNCC2)c1 [Compound 128, 4-[2-(3-Fluoro-4-methyl-phenylsulfanyl)-5-methyl-phenyl]-1,2,3,6-tetrahydro-pyridine] | did show serotonin reuptake inhibition | did not show norepinephrine uptake inhibition |
| Fc1cccc(Sc2ccccc2C2=CCNCC2)c1F [Compound 83, 4-[2-(2,3-Difluoro-phenylsulfanyl)-phenyl]-1,2,3,6-tetrahydro-pyridine] | did show serotonin reuptake inhibition | did not show norepinephrine uptake inhibition |
| Cc1ccc(Sc2ccccc2C2=CCNCC2)c(Cl)c1 [Compound 84, 4-[2-(2-Chloro-4-methyl-phenylsulfanyl)-phenyl]-1,2,3,6-tetrahydro-pyridine] | did show serotonin reuptake inhibition | did not show norepinephrine uptake inhibition |
| COc1ccc(Sc2ccccc2C2=CCNCC2)c(C)c1 [Compound 37, 4-[2-(4-Methoxy-2-methyl-phenylsulfanyl)-phenyl]-1,2,3,6-tetrahydro-pyridine] | did show serotonin reuptake inhibition | did not show norepinephrine uptake inhibition |
| Cc1ccc(Sc2ccc(C)cc2C2=CCNCC2)c(F)c1 [Compound 52, 4-[2-(2-Fluoro-4-methyl-phenylsulfanyl)-5-methyl-phenyl]-1,2,3,6-tetrahydro-pyridine] | did show serotonin reuptake inhibition | did not show norepinephrine uptake inhibition |
| COc1ccc(Sc2ccc(C)cc2C2=CCNCC2)c(F)c1 [Compound 61, 4-[2-(2-Fluoro-4-methoxy-phenylsulfanyl)-5-methyl-phenyl]-1,2,3,6-tetrahydro-pyridine] | did show serotonin reuptake inhibition | did not show norepinephrine uptake inhibition |
| Cc1ccc(Sc2cccc(F)c2C)c(C2=CCNCC2)c1 [Compound 89, 4-[2-(3-Fluoro-2-methyl-phenylsulfanyl)-5-methyl-phenyl]-1,2,3,6-tetrahydro-pyridine] | did show serotonin reuptake inhibition | did not show norepinephrine uptake inhibition |
| Cc1ccc(Sc2cccc(Cl)c2F)c(C2=CCNCC2)c1 [Compound 86] | did show serotonin reuptake inhibition | did not show norepinephrine uptake inhibition |
| Cc1cccc(Sc2ccccc2C2=CCNCC2)c1C [Compound 33, 4-[2-(2,3-Dimethyl-phenylsulfanyl)-phenyl]-1,2,3,6-tetrahydro-pyridine] | did show serotonin reuptake inhibition | did not show norepinephrine uptake inhibition |
| Cc1c(F)cccc1Sc1ccccc1C1=CCNCC1 [Compound 87, 4-[2-(3-Fluoro-2-methyl-phenylsulfanyl)-phenyl]-1,2,3,6-tetrahydro-pyridine] | did show serotonin reuptake inhibition | did not show norepinephrine uptake inhibition |
